This is an account of results in patent publication US12643871B2, “Aryl formamide compound containing chiral sulfur oxide or salt thereof, preparation method, herbicidal composition and use thereof” (Qingdao Kingagroot Chemical Compound Co., Ltd., priority 2019, dated 2026).

Experiment in all cases: Weeding effect in post-emergence stage
What all share (format): in vivo
Holding throughout (settings): 250 g/ha; 2 leaf stage; 15 days after application; fresh weight control rate

In one test the test system is Setaria viridis. The method, boiled down:
(§1)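 Reported levels reflect fresh weight growth control rate banded 0 (<5%) through 5 (>85%), averaged over three repetitions. Treatment: foliar spray of 2-leaf-stage greenhouse plants at 15 to 500 g/ha, with 1.5 liter/ha methyl oleate synergist; assessment 15 days after application.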

Another test deals with Abutilon theophrasti. The method, boiled down:
as §1

The next test concerns Echinochloa crusgali. The method, boiled down: as §1
For the next test, the system named is Amaranthus retroflexus. In a few lines:
as §1

For another test, the system named is Digitaria sanguinalis. In a few lines:
as §1

For the molecule `COc1c(C(=O)Nc2nnc(C)o2)ccc(C(F)(F)F)c1[S@+]([O-])CC(F)F` [Compound 323], in the test on Setaria viridis, the “weeding effect in post-emergence stage, activity level (growth control rate), Setaria viridis” value (from here on “weeding effect … Setaria viridis”) is reported as 5 (Level 5: growth control rate is above 85%). Besides, the “weeding effect in post-emergence stage, activity level (growth control rate), Abutilon theophrasti” value (“weeding effect … Abutilon theophrasti” for short) with Abutilon theophrasti is reported as 5 (Level 5: growth control rate is above 85%). For the same molecule, in the test with Echinochloa crusgali, the “weeding effect in post-emergence stage, activity level (growth control rate), Echinochloa crusgali” value (from here on “weeding effect … Echinochloa crusgali”) is recorded as 5 (Level 5: growth control rate is above 85%). The “weeding effect in post-emergence stage, activity level (growth control rate), Amaranthus retroflexus” value (from here on “weeding effect … Amaranthus retroflexus”) in the test on Amaranthus retroflexus is recorded as 5 (Level 5: growth control rate is above 85%). Besides, the “weeding effect in post-emergence stage, activity level (growth control rate), Digitaria sanguinalis” value (“weeding effect … Digitaria sanguinalis” below) with Digitaria sanguinalis is on record as 5 (Level 5: growth control rate is above 85%).

As for `COc1c(C(=O)Nc2nnc(C)o2)ccc(C(F)(F)F)c1[S@+]([O-])CC(F)(F)F` [Compound 324], the “weeding effect … Setaria viridis” value with Setaria viridis is reported as 5 (Level 5: growth control rate is above 85%). For the same molecule, in the test with Abutilon theophrasti, the “weeding effect … Abutilon theophrasti” value is given as 5 (Level 5: growth control rate is above 85%). For the same molecule, the “weeding effect … Echinochloa crusgali” value with Echinochloa crusgali is recorded as 5 (Level 5: growth control rate is above 85%). Besides, the “weeding effect … Amaranthus retroflexus” value in the test with Amaranthus retroflexus is 5 (Level 5: growth control rate is above 85%). Besides, in the test with Digitaria sanguinalis, the “weeding effect … Digitaria sanguinalis” value is given as 5 (Level 5: growth control rate is above 85%).

In the case of `COc1c(C(=O)Nc2nnc(C)o2)ccc(C(F)(F)F)c1[S@+]([O-])CCC(F)(F)F` [Compound 325], the “weeding effect … Setaria viridis” value with Setaria viridis was 5 (Level 5: growth control rate is above 85%). For the same molecule, the “weeding effect … Abutilon theophrasti” value in the test on Abutilon theophrasti is on record as 5 (Level 5: growth control rate is above 85%). The “weeding effect … Echinochloa crusgali” value in the test with Echinochloa crusgali is on record as 5 (Level 5: growth control rate is above 85%). Moreover, in the test with Amaranthus retroflexus, the “weeding effect … Amaranthus retroflexus” value is given as 5 (Level 5: growth control rate is above 85%). For the same molecule, the “weeding effect … Digitaria sanguinalis” value with Digitaria sanguinalis is reported as 5 (Level 5: growth control rate is above 85%).

For `COc1c(C(=O)Nc2nnc(C)o2)ccc(C(F)(F)F)c1[S@+]([O-])CCCC(F)(F)F` [Compound 326], the “weeding effect … Setaria viridis” value with Setaria viridis was 5 (Level 5: growth control rate is above 85%). For the same molecule, the “weeding effect … Abutilon theophrasti” value with Abutilon theophrasti is on record as 5 (Level 5: growth control rate is above 85%). Further, the “weeding effect … Echinochloa crusgali” value in the test on Echinochloa crusgali is reported as 5 (Level 5: growth control rate is above 85%). Further, the “weeding effect … Amaranthus retroflexus” value in the test with Amaranthus retroflexus is 5 (Level 5: growth control rate is above 85%). Moreover, the “weeding effect … Digitaria sanguinalis” value in the test on Digitaria sanguinalis was 5 (Level 5: growth control rate is above 85%).

`COc1c(C(=O)Nc2nnc(C)o2)ccc(C(F)(F)F)c1[S@@+]([O-])C(F)(F)C(F)(F)F` [Compound 327]: the “weeding effect … Setaria viridis” value in the test with Setaria viridis is listed as 5 (Level 5: growth control rate is above 85%). For the same molecule, the “weeding effect … Abutilon theophrasti” value in the test with Abutilon theophrasti is on record as 5 (Level 5: growth control rate is above 85%). In the test with Echinochloa crusgali, the “weeding effect … Echinochloa crusgali” value is 5 (Level 5: growth control rate is above 85%). Further, the “weeding effect … Amaranthus retroflexus” value with Amaranthus retroflexus is given as 5 (Level 5: growth control rate is above 85%). Also, the “weeding effect … Digitaria sanguinalis” value in the test with Digitaria sanguinalis is reported as 5 (Level 5: growth control rate is above 85%).

As to `COc1c(C(=O)Nc2nnc(C)o2)ccc(C(F)(F)F)c1[S@@+]([O-])C(F)(F)C(F)(F)C(F)(F)F` [Compound 328], the “weeding effect … Setaria viridis” value in the test on Setaria viridis is on record as 5 (Level 5: growth control rate is above 85%). Also, the “weeding effect … Abutilon theophrasti” value in the test on Abutilon theophrasti was 5 (Level 5: growth control rate is above 85%). In addition, the “weeding effect … Echinochloa crusgali” value in the test with Echinochloa crusgali is 5 (Level 5: growth control rate is above 85%). Further, the “weeding effect … Amaranthus retroflexus” value in the test on Amaranthus retroflexus is reported as 5 (Level 5: growth control rate is above 85%). Further, the “weeding effect … Digitaria sanguinalis” value in the test with Digitaria sanguinalis was 5 (Level 5: growth control rate is above 85%).

On to `COc1c(C(=O)Nc2nnc(C)o2)ccc(C(F)(F)F)c1[S@+]([O-])CCC(F)(F)C(F)(F)F` [Compound 329], for which, in the test with Setaria viridis, the “weeding effect … Setaria viridis” value is recorded as 5 (Level 5: growth control rate is above 85%). Moreover, the “weeding effect … Abutilon theophrasti” value in the test with Abutilon theophrasti is recorded as 5 (Level 5: growth control rate is above 85%). Moreover, in the test with Echinochloa crusgali, the “weeding effect … Echinochloa crusgali” value is reported as 5 (Level 5: growth control rate is above 85%). The “weeding effect … Amaranthus retroflexus” value with Amaranthus retroflexus is 5 (Level 5: growth control rate is above 85%). In addition, the “weeding effect … Digitaria sanguinalis” value in the test on Digitaria sanguinalis was 5 (Level 5: growth control rate is above 85%).

Regarding `COc1c(C(=O)Nc2nnc(C)o2)ccc(C(F)(F)F)c1[S@@+]([O-])C(F)(C(F)(F)F)C(F)(F)F` [Compound 330], the “weeding effect … Setaria viridis” value in the test with Setaria viridis is given as 5 (Level 5: growth control rate is above 85%). For the same molecule, the “weeding effect … Abutilon theophrasti” value in the test with Abutilon theophrasti was 5 (Level 5: growth control rate is above 85%). In addition, the “weeding effect … Echinochloa crusgali” value with Echinochloa crusgali is listed as 5 (Level 5: growth control rate is above 85%). Moreover, in the test on Amaranthus retroflexus, the “weeding effect … Amaranthus retroflexus” value is on record as 5 (Level 5: growth control rate is above 85%). The “weeding effect … Digitaria sanguinalis” value in the test on Digitaria sanguinalis was 5 (Level 5: growth control rate is above 85%).

In the case of `COc1c(C(=O)Nc2nnc(C)o2)ccc(C(F)(F)F)c1[S@+]([O-])CCC(F)(C(F)(F)F)C(F)(F)F` [Compound 331], the “weeding effect … Setaria viridis” value with Setaria viridis is reported as 5 (Level 5: growth control rate is above 85%). In addition, the “weeding effect … Abutilon theophrasti” value in the test on Abutilon theophrasti is 5 (Level 5: growth control rate is above 85%). Further, in the test with Echinochloa crusgali, the “weeding effect … Echinochloa crusgali” value was 5 (Level 5: growth control rate is above 85%). The “weeding effect … Amaranthus retroflexus” value with Amaranthus retroflexus is 5 (Level 5: growth control rate is above 85%). For the same molecule, the “weeding effect … Digitaria sanguinalis” value in the test on Digitaria sanguinalis is reported as 5 (Level 5: growth control rate is above 85%).

Turning to `COc1c(C(=O)Nc2nnc(C)o2)ccc(C(F)(F)F)c1[S@+]([O-])CCCl` [Compound 332], the “weeding effect … Setaria viridis” value in the test on Setaria viridis is 5 (Level 5: growth control rate is above 85%). Further, the “weeding effect … Abutilon theophrasti” value in the test with Abutilon theophrasti is reported as 5 (Level 5: growth control rate is above 85%). Also, the “weeding effect … Echinochloa crusgali” value in the test with Echinochloa crusgali is recorded as 5 (Level 5: growth control rate is above 85%). Moreover, the “weeding effect … Amaranthus retroflexus” value in the test with Amaranthus retroflexus was 5 (Level 5: growth control rate is above 85%). Besides, in the test with Digitaria sanguinalis, the “weeding effect … Digitaria sanguinalis” value was 5 (Level 5: growth control rate is above 85%).
